Source: ChEMBL document CHEMBL3997793, “Discovery of peptidic miR-21 processing inhibitor by mirror image phage display: A novel method to generate RNA binding D-peptides” (Bioorg Med Chem Lett, 2017)

Legend:
[1] = Binding affinity to synthetic 3'-biotin-labelled mirrored pre-miR-21 RNA by ELISA
[2] = Binding affinity to synthetic 3'-biotin-labelled pre-miR-21 RNA assessed as inhibition of human recombinant Dicer-mediated pre-miR-21 processing by measuring reduction in mature miR-21 formation pretreated for 30 mins followed by dicer addition after 2 hrs by SYBR staining based PAGE analysis
[3] = Binding affinity to synthetic 3'-biotin-labelled pre-miR-21 RNA by ELISA

EC50 [1]	IC50 [2]	EC50 [3]	SMILES
1600 nM	540 nM	0.44 µM	CC(C)[C@@H](NC(=O)[C@@H](C)NC(=O)[C@@H](CCCNC(=N)N)NC(=O)[C@H]1CSSC[C@@H](NC(=O)[C@@H](CCCNC(=N)N)NC(=O)CNC(=O)[C@H]2CCCN2C(=O)CCCC[C@@H]2SC[C@@H]3NC(=O)N[C@@H]32)C(=O)N[C@H](CCCCN)C(=O)N2CCC[C@@H]2C(=O)N[C@H](CCCCN)C(=O)N[C@H](CCCNC(=N)N)C(=O)N[C@H](CCCNC(=N)N)C(=O)N[C@H](CCCNC(=N)N)C(=O)N[C@H](CCCNC(=N)N)C(=O)N[C@H](C)C(=O)N[C@H]([C@H](C)O)C(=O)N1)C(=O)O
150 nM	–	7.4 µM	CC(C)[C@H](NC(=O)[C@H](C)NC(=O)[C@H](CCCNC(=N)N)NC(=O)[C@@H]1CSSC[C@H](NC(=O)[C@H](CCCNC(=N)N)NC(=O)CNC(=O)[C@@H]2CCCN2C(=O)CCCC[C@@H]2SC[C@@H]3NC(=O)N[C@@H]32)C(=O)N[C@@H](CCCCN)C(=O)N2CCC[C@H]2C(=O)N[C@@H](CCCCN)C(=O)N[C@@H](CCCNC(=N)N)C(=O)N[C@@H](CCCNC(=N)N)C(=O)N[C@@H](CCCNC(=N)N)C(=O)N[C@@H](CCCNC(=N)N)C(=O)N[C@@H](C)C(=O)N[C@@H]([C@@H](C)O)C(=O)N1)C(=O)O
